Results published in ChEMBL document CHEMBL4428091, “Design and optimization of (3-aryl-1H-indazol-6-yl)spiro[cyclopropane-1,3'-indolin]-2'-ones as potent PLK4 inhibitors with oral antitumor efficacy” (Bioorg Med Chem Lett, 2016).

Tests used:
[1] = target: T1, Serine/threonine-protein kinase PLK4 (Homo sapiens, UniProt O00444); assay: Inhibition of PLK4 (unknown origin)
T1 sequence (O00444 whole entry): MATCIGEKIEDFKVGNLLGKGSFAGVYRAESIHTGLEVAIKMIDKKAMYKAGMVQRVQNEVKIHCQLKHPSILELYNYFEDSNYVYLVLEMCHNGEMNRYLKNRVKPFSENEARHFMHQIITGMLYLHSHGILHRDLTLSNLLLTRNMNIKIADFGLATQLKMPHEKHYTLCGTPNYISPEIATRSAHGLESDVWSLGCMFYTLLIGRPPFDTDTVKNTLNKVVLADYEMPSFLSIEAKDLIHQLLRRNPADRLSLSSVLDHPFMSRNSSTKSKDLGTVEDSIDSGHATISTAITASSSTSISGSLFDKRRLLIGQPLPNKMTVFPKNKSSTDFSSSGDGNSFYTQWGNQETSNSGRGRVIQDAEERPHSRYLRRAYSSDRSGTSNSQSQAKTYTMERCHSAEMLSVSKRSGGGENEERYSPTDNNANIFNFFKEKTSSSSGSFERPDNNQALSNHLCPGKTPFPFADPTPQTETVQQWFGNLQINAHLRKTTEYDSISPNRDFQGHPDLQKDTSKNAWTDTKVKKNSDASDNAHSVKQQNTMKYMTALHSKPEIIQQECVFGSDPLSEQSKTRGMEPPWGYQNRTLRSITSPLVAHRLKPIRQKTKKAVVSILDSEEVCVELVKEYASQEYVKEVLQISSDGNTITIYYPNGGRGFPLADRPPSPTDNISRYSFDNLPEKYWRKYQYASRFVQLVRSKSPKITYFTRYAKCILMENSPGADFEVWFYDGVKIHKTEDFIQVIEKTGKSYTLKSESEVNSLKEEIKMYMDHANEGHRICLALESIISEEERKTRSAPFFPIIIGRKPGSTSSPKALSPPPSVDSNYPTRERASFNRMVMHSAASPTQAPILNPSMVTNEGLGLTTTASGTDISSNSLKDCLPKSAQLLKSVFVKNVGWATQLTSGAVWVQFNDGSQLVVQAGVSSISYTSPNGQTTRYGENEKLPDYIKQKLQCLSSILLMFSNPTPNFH

[2] = target: T2, Receptor-type tyrosine-protein kinase FLT3 (Homo sapiens, UniProt P36888); assay: Inhibition of FLT3 (unknown origin)
T2 sequence (P36888 whole entry): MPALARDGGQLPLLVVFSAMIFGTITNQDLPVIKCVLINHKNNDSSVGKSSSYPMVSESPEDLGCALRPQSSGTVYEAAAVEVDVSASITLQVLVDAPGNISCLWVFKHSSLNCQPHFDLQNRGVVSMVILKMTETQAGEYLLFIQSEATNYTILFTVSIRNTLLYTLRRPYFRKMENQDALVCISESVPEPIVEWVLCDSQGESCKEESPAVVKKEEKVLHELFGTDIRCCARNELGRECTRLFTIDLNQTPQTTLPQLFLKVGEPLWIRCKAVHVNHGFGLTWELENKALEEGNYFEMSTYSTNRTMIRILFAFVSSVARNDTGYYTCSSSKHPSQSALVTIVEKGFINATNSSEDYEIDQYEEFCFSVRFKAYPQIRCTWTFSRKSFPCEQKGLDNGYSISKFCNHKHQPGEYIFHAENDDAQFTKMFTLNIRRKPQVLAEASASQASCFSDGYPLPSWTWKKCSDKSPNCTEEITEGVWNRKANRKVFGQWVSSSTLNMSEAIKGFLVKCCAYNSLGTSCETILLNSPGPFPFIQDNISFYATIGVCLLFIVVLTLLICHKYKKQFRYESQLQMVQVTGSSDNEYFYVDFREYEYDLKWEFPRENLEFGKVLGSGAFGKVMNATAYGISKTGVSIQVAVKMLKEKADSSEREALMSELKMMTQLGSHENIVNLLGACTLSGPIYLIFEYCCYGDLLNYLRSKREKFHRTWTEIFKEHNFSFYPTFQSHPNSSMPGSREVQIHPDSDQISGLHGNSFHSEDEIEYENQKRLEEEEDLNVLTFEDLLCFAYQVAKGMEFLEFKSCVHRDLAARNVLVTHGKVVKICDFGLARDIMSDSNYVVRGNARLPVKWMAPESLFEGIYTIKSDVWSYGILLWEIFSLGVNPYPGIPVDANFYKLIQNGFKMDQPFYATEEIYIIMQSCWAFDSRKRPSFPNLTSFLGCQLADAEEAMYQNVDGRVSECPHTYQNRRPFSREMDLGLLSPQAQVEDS

MDA-MB-468 [3] = assay: Growth inhibition of human MDA-MB-468 cells; type: functional
MCF7 = assay: Growth inhibition of human MCF7; type: functional
HCC1954 = assay: Growth inhibition of human HCC1954; type: functional
[4] = Lipophilicity, log D of the compound at pH 7.4; type: physicochemical; conditions: buffer
[5] = Dissociation constant, pKa of the compound; type: physicochemical
[6] = AUC in rat at 5 mg/kg, po; type: ADME, organism-based; conditions: in vivo, read-out: AUC
CYP3A4 = CYP3A4 (Homo sapiens, UniProt P08684); assay: Inhibition of CYP3A4 (unknown origin) at 1 uM; type: ADME
[7] = Clearance in rat at 1 mg/kg, iv; type: ADME, organism-based; conditions: in vivo
Aurora kinase A = target: T3, Aurora kinase A (Homo sapiens, UniProt O14965); assay: Inhibition of AURKA (unknown origin)
T3 sequence (O14965 whole entry): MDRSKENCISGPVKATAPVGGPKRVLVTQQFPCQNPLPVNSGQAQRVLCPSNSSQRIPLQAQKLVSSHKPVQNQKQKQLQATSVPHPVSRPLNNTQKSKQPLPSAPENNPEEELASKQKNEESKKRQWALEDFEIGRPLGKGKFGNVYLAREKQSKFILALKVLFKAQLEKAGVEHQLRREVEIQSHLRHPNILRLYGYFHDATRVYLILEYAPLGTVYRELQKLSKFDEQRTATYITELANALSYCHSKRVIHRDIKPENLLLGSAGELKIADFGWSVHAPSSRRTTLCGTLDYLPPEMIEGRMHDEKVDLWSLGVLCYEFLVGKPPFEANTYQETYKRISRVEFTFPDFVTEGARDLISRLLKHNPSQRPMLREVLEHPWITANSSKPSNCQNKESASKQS

[8] = Half life in mouse microsomes; type: ADME, Microsome
[9] = AUC in mouse at 25 mg/kg, po; type: ADME, organism-based; conditions: in vivo
CYP2C19 = CYP2C19 (Homo sapiens, UniProt P33261); assay: Inhibition of CYP2C19 (unknown origin) at 1 uM; type: ADME
[10] = Half life in rat at 1 mg/kg, iv; type: ADME, organism-based; conditions: in vivo
[11] = Toxicity in mouse xenografted with human MDA-MB-468 cells assessed as body weight loss at 37.5 mg/kg, po qd for 21 days measured during compound dosing relative to vehicle control; type: organism-based; conditions: in vivo, 504 h
[12] = Half life in human microsomes; type: ADME, Microsome
[13] = AUC in rat at 1 mg/kg, iv; type: ADME, organism-based; conditions: in vivo
Aurora kinase B = Aurora kinase B (Homo sapiens, UniProt Q96GD4); assay: Inhibition of AURKB (unknown origin)
[14] = Oral bioavailability in rat at 5 mg/kg; type: ADME, organism-based; conditions: in vivo
MDA-MB-468 [15] = assay: Antitumor activity against human MDA-MB-468 cells xenografted in mouse assessed as tumor growth inhibition at 37.5 mg/kg, po qd for 21 days measured on day 21 post last dose relative to vehicle control; type: functional; conditions: MDA-MB-468, po, 504 h, read-out: TGI
[16] = Cmax in mouse at 25 mg/kg, po; type: ADME, organism-based; parameters: dose 25 mg/kg, route oral; conditions: in vivo, read-out: Cmax
CYP2C9 = CYP2C9 (Homo sapiens, UniProt P11712); assay: Inhibition of CYP2C9 (unknown origin) at 1 uM; type: ADME
[17] = target: Vascular endothelial growth factor receptor 2 (Homo sapiens, UniProt P35968); assay: Inhibition of KDR (unknown origin)
Vascular endothelial growth factor receptor 2, sequence (P35968 whole entry): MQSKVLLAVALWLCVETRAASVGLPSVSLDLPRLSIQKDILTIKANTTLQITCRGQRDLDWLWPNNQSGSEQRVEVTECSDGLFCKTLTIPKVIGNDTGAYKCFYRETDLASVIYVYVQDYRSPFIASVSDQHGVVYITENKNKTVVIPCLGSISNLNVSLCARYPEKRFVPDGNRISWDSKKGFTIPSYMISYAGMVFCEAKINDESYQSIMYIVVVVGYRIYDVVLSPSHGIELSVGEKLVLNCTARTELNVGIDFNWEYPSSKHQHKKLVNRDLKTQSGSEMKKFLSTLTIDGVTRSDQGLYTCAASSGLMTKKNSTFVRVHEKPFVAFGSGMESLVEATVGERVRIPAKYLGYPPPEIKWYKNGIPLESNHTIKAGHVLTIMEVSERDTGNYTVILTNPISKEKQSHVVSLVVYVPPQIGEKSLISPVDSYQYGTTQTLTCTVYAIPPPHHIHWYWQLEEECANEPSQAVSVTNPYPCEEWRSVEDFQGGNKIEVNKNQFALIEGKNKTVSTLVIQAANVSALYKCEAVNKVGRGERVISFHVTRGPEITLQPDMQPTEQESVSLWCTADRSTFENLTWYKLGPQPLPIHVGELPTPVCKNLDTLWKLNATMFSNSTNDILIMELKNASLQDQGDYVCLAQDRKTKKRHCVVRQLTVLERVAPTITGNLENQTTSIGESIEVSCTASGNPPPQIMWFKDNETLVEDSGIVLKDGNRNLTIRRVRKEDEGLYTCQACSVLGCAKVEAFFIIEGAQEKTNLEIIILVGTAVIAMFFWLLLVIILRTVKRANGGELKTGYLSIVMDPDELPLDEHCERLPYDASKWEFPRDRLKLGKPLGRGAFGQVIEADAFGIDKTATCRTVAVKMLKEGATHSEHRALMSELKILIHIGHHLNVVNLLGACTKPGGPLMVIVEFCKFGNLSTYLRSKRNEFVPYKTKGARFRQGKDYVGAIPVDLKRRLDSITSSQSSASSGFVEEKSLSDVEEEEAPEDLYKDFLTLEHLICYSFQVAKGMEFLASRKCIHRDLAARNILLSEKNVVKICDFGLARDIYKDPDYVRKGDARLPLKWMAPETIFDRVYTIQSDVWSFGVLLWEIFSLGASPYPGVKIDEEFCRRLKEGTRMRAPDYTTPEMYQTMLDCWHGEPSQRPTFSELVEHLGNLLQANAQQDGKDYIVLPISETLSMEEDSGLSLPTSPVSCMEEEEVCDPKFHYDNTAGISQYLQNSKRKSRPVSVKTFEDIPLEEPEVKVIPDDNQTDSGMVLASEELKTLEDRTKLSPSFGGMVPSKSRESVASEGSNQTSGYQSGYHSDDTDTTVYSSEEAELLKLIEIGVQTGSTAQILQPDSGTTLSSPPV

Aurora kinase B, sequence (Q96GD4 whole entry): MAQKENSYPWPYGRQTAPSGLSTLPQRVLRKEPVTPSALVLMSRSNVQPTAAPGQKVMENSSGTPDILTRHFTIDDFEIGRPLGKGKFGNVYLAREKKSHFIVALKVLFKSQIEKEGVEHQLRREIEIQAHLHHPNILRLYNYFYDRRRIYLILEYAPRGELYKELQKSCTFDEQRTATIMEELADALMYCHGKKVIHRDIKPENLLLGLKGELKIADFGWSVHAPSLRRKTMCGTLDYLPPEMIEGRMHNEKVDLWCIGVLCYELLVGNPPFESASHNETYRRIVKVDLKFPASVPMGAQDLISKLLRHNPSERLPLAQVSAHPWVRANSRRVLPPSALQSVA
CYP3A4, sequence (P08684 whole entry): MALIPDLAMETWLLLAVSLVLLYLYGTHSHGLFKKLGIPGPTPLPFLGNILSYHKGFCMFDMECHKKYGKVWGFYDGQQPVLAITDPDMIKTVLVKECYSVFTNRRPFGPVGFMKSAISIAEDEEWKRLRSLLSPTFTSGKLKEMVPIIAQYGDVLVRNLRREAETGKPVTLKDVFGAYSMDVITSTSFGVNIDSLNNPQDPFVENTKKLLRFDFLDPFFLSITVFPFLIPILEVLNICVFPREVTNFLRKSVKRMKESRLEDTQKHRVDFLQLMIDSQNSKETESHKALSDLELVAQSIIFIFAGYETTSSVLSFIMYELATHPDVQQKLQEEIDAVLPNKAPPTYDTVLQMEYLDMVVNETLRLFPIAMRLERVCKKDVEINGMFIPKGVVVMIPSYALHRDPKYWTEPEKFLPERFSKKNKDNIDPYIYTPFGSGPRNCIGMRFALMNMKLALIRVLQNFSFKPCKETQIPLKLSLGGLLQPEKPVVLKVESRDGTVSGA
CYP2C9, sequence (P11712 whole entry): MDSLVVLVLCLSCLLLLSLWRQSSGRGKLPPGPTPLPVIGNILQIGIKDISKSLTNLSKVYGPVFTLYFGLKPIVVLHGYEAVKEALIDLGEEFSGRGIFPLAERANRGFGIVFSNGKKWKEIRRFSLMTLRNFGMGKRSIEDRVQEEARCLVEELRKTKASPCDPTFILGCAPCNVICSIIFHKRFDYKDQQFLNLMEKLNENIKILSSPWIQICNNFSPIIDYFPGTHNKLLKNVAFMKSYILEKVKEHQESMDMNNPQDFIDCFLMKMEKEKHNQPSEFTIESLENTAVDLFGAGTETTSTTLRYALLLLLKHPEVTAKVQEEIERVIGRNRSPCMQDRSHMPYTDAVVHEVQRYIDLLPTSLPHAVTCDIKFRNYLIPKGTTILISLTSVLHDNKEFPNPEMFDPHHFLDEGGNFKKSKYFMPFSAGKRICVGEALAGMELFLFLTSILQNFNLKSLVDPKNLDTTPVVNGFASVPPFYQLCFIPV
CYP2C19, sequence (P33261 whole entry): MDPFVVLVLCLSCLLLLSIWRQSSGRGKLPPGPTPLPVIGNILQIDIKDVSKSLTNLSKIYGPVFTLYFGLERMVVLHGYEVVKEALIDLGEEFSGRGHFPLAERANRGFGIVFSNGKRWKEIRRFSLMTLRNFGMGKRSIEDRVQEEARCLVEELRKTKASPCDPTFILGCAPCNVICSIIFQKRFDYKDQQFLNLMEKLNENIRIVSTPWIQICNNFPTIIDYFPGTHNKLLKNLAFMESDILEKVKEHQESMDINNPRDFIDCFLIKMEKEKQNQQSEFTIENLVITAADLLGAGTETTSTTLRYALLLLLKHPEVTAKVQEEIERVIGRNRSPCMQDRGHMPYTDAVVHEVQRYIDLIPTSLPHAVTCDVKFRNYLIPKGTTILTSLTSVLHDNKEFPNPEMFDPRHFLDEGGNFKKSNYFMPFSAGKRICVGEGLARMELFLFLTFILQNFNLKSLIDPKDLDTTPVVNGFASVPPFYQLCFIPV

SMILES	IC50 [1]	IC50 [2]	GI50 (MDA-MB-468 [3])	GI50 (MCF7)	GI50 (HCC1954)	logD [4]	AUC [6]	inhibition at 1 µM (CYP3A4)	clearance [7]	IC50 (Aurora kinase A)	half-life [8]	AUC [9]	inhibition at 1 µM (CYP2C19)	half-life [10]	half-life [12]	AUC [13]	IC50 (Aurora kinase B)	bioavailability [14]	Cmax [16]	inhibition at 1 µM (CYP2C9)	other results
COc1ccc2c(c1)[C@]1(C[C@H]1c1ccc3c(-c4ccc(C5(F)CCN(C)CC5)cc4)n[nH]c3c1)C(=O)N2	1.5 nM	200 nM	220 nM	150 nM	1420 nM	4	–	–	–	–	–	–	–	–	–	–	–	–	–	–	pKa [5]: 7.7
CCN1CCN(c2ccc(-c3n[nH]c4cc([C@@H]5C[C@@]56C(=O)Nc5ccc(OC)cc56)ccc34)cc2)CC1	1.6 nM	62 nM	31 nM	6.3 nM	240 nM	4.8	310 ng·h/mL	6%	55 mL/min/kg	> 1000 nM	15 min	3000 ng·h/mL	60%	96 min	> 60 min	310 ng·h/mL	8.5 nM	11%	1100 ng/mL	37%	Activity [11]: < 20%; inhibition in vivo at 37.5 mg/kg (MDA-MB-468 [15]): 48%
COc1ccc2c(c1)[C@]1(C[C@H]1c1ccc3c(-c4ccc(N5CCN(C)CC5)cc4)n[nH]c3c1)C(=O)N2	0.94 nM	45 nM	15 nM	1 nM	1400 nM	4	260 ng·h/mL	3%	68.3 mL/min/kg	> 1000 nM	9 min	1830 ng·h/mL	33%	78 min	19 min	270 ng·h/mL	6.9 nM	22%	710 ng/mL	35%	IC50 [17]: 9400 nM; Activity [11]: < 20%; inhibition in vivo at 37.5 mg/kg (MDA-MB-468 [15]): 96%
COc1ccc2c(c1)[C@]1(C[C@H]1c1ccc3c(-c4ccc(N5CCN(C)CC5)nc4)n[nH]c3c1)C(=O)N2	0.69 nM	97 nM	–	100 nM	3300 nM	3.3	140 ng·h/mL	6%	63.3 mL/min/kg	> 1000 nM	8 min	140 ng·h/mL	30%	96 min	20 min	270 ng·h/mL	10 nM	10%	71 ng/mL	34%	IC50 [17]: 14000 nM
